Laboratory results published in patent publication US9045527B2, “Small molecule conjugates with dimetal species for protein inhibition” (WILLIAM MARSH RICE UNIVERSITY, priority 2012, dated 2015).
“Also recorded” adds a separate entry of the source. Where no end group is shown, it is not given here.

What was measured:
[1] = test system: K3a,eRh2 coiled coil; assay: Thermal denaturation of metallopeptide coiled coils monitored by CD; type: physicochemical; conditions: for melting temperature (Tm) of coiled coil: equimolar mixture of E3X peptide and K3a,eRh2 in aq buffer, CD 222 nm
Method: FIG. 4 is a table detailing the thermal denaturation of metallopeptide coiled coils. The following standard conditions: equimolar mixtures of E3X and K3a,eRh2 in aq buffer (pH 5.9-6.2) were monitored by CD (222 nm) from −5 to 95° C. at 1° C./min. The peptide concentrations are 100 μM. The CD monitored is at 225 nm and in certain embodiments, the peptide concentration is 33 μM.
Rhodium(II) centers are capable of forming stabilizing secondary contacts at the periphery of a protein binding interface while examining the coiled-coil assembly of rhodium(II) metallopeptides with histidine-containing peptides. A rhodium(II) center linked to a coil at positions a and e of a heptad repeat abcdefg (See FIG. 4) would be proximal to position g of the complementary peptide, E3gX.
Circular Dichroism Spectroscopy: Thermal denaturation experiments (−5-105° C. with a gradient of 1° C./min) were performed on a Jasco-J810 spectropolarimeter with a Peltier temperature controller (Jasco PTC423S). Solutions of 1:1 E3-peptide and K3-metallopeptide (both components 100 or 33 μM) in aqueous buffer in a 0.1 cm sealed cell were analyzed, and ellipticity data were acquired at 222 nm (red data points, S-5). When imidazole additive was utilized, ellipticity data were acquired at 225 nm. Temperature denaturation curves were fit to a two-state unfolding model and plotted (black line, S-5) as fraction unfolded vs. temperature as described previously by Lavigne et al.8 Error associated with the non-linear least squared-determined Tm was determined using the freely available “Solver Statistics” macro for Microsoft Excel.

[2] = target: T1, CAL PDZ domain (Homo sapiens, UniProt Q9HD26); assay: HSQC footprinting of 15N-CALP; type: binding; conditions: 125-μM peptide, 2.5% (v/v) DMSO
T1 construct: Expression and purification of the WT and mutant CAL PDZ domains were performed according to commonly described and known methods; made in house
Method: HSQC spectra of 15N-CALP determined separately (red) and in the presence of 125-μM E^RhVQSTRL (SEQ ID NO:7) metallopeptide (green) in 2.5% (v/v) DMSO.
The chemical shifts (δ) are reported in units of part per million (ppm) relative to solvent peak. HSQC footprinting: 25 μM N-labeled CAL PDZ protein was also subjected to H, N heteronuclear single quantum correlation spectroscopy (HSQC) analysis, as described, except that tris(2-carboxyethyl)phosphine was omitted from the final dialysis buffers. […] HSQC backbone crosspeaks were assigned by comparison with the previously assigned CALP apo spectrum.

[3] = target: N1P1; assay: N1P1 affinity (uM)
Method: Table printed on a drawing sheet, Figure 9B
Title: Metallopeptide ligands for PDZ domains
Head of the field: N1P1 affinity (uM)
The patent's description of the figure: FIG. 9A is a table of metallopeptide inhibitors of CALP. [a], inhibitor equilibrium dissociation (Ki) constants were determined for cognate peptide/metallopeptide pairs. […] In embodiment, [c]
First copying reader's note: The fold values (22x, 95x and so on) are printed beside brackets joining each peptide/Rh-peptide pair and are repeated in both rows; the H301A block stands apart at the right, has no printed unit, and its rows are matched to the sequences by their height on the sheet.
Where the first naming reader finds the target: head: N1P1 affinity (uM)

[4] = target: T2, full-length CAL (Homo sapiens, UniProt Q9HD26); assay: Capture (pulldown) inhibition assay in epithelial cell lysate; type: binding; conditions: CFBE4lo− cell lysates, BT-iCAL36 bait, n=3
T2 construct: Western blot of native CAL was captured from epithelial lysates; endogenous in cells; host or cells: CFBE41o- epithelial cell lysate
Method: Thus, the metalation improves inhibitor potency.
Capture inhibition assays: To determine the ability of inhibitor peptides to displace the interactions of full-length CAL in the presence of the epithelial-cell proteome, a capture inhibition assay was developed. Briefly, using published methods a biotin-conjugated peptide “bait” sequence (BT-iCAL36) was immobilized on streptavidin beads and incubated with clarified lysates of CFBE4lo− cells to capture full-length CAL in the presence of cellular proteins. […] Beads were washed and eluted, and bound proteins were separated by SDS-PAGE and immunoblotted using an α-CAL antibody. Band intensities were separately quantified and averaged (n=3).

[5] = target: T3, CAL PDZ domain (CALP) (Homo sapiens, UniProt Q9HD26); assay: Fluorescence anisotropy inhibition binding assay (displacement of fluorescein-labeled iCAL36 reporter); conditions: wild-type CALP
T3 construct: Expression and purification of the WT and mutant CAL PDZ domains were performed according to commonly described and known methods; made in house
Method: Protein binding studies: Fluorescence anisotropy inhibition binding assays were performed using standard procedures. […] Following equilibration, fluorescence anisotropy values were determined using a Tecan Infinite M1000 plate reader (n=3). Inhibitor equilibrium dissociation (Ki) constants were estimated as described. DMSO and rhodium(II) acetate were used as negative controls for unlabeled and labeled peptides, respectively.

[6] = target: T4, CALP (Homo sapiens, UniProt Q9HD26); assay: CALP affinity (uM)
T4 construct: Western blot of native CAL was captured from epithelial lysates; endogenous in cells; host or cells: CFBE41o- epithelial cell lysate
Source text: Head of the field: CALP affinity (uM)

[7] = target: T4, CALP; assay: Ki (μM)
Source text: Head of the field: Ki (μM)

Compound: N[C@@H](CS)C(=O)O [E3gC]
- coiled coil stability ([1]; assembly with K3a,eRh2): decreased stability

Compound: CC(=O)N[C@@H](CCC(=O)O)C(=O)N[C@H](C(=O)N[C@@H](CCC(N)=O)C(=O)N[C@@H](CO)C(=O)N[C@H](C(=O)N[C@@H](CCCNC(=N)N)C(=O)N[C@@H](CC(C)C)C(=O)O)[C@@H](C)O)C(C)C [EVQSTRL]
- mode of inhibition [2]: competitive inhibitors

Compound: CC[C@H](C)[C@H](NC(=O)[C@@H](NC(=O)[C@H](CO)NC(=O)[C@@H](NC(=O)[C@@H]1CCCN1C(=O)[C@H](Cc1c[nH]c2ccccc12)NC(=O)[C@H](CCC(=O)O)NC(C)=O)[C@@H](C)O)[C@@H](C)CC)C(=O)O [EWPTSII]
- Ki [3]: > 500 µM

Compound: CC(=O)N[C@@H](CCC(=O)O)C(=O)N[C@H](C(=O)N[C@@H](CCC(N)=O)C(=O)N[C@@H](CO)C(=O)N[C@H](C(=O)N[C@@H](CCCNC(=N)N)C(=O)N[C@@H](CC(C)C)C(=O)O)[C@@H](C)O)C(C)C [E^RhVQSTRL]
- inhibition of CAL pulldown [4]: improved inhibition; also recorded: dose-dependent inhibition
- mode of inhibition [2]: competitive inhibitors

Compound: CC[C@H](C)[C@H](NC(=O)[C@@H](NC(=O)[C@H](CO)NC(=O)[C@@H](NC(=O)[C@@H]1CCCN1C(=O)[C@H](Cc1c[nH]c2ccccc12)NC(=O)[C@H](CCC(=O)O)NC(C)=O)[C@@H](C)O)[C@@H](C)CC)C(=O)O [E^RhWPTSII]
- Ki [3]: > 50 µM

Compound: CC(=O)[O-].CC(=O)[O-].CC(=O)[O-].CC(=O)[O-].[Rh+2].[Rh+2] [Rh2(OAc)4, rhodium(II) acetate]
- Ki ([5]; n=3, read-out: Ki (inhibitor equilibrium dissociation constant)): 13 ± 5 µM

Compound: CC(=O)N[C@H](C(=O)N[C@@H](CCC(N)=O)C(=O)N[C@@H](CC(=O)O)C(=O)N[C@H](C(=O)N[C@@H](CCCNC(=N)N)C(=O)N[C@@H](CC(C)C)C(=O)O)[C@@H](C)O)C(C)C [VQDTRL]
- CALP affinity [5]: weak CALP affinity
- Ki [3]: 0.7 µM

Compound: Ac-EVQSTRF-OH [EVQSTRF]
- Ki [6]: > 1000 µM

Compound: Ac-EVQSTRF-OH [E^RhVQSTRF]
- Ki [6]: > 15 µM

Compound: Ac-QLDVTR-OH [QLDVTR]
- Ki [7]: > 500 µM

Compound: E3cH: E3 coil peptide with histidine moved to position c (Ac-EISALEKEISHLEQEISALEK)
- melting temperature (Tm) of coiled coil [1]: 47.0 °C

Compound: E3gE: E3 coil peptide with glutamate at position g (Ac-EISALEKEISALEQEISALEK)
- melting temperature (Tm) of coiled coil [1]: 50.2 °C

Compound: E3gF: E3 coil control peptide with non-coordinating phenylalanine at position g (Ac-EISALEKFISALEQEISALEK) [reference compound]
- melting temperature (Tm) of coiled coil [1]: 39.5 °C

Compound: E3gM: E3 coil peptide with methionine at position g (Ac-EISALEKMISALEQEISALEK)
- melting temperature (Tm) of coiled coil [1]: > 70 °C

Compound: QLD^RhVTR: metallopeptide derived from a non-binding, scrambled control sequence (Ac-QLDVTR; also: rhodium(II) metalated, site not placed)
- CALP affinity [5]: comparable
